Source: US7943186B2, “Hydroxycitric acid compositions, pharmaceutical and dietary supplements and food products made therefrom, and methods for their use in reducing body weight” (Interhealth Nutraceuticals, Inc., priority 1997, dated 2011)

Columns and labels:
rats = details: cited from earlier work
fatty acid synthesis = details: biological systems, profused organs and intact mammals; cited from earlier work
Solubility in water = type: physicochemical
Hygroscopicity = type: physicochemical

SMILES	body weight (rats)	lipid accumulation (rats)	inhibition of fatty acid synthesis (fatty acid synthesis)	solubility in water (in words) (Solubility in water)	hygroscopicity (Hygroscopicity)
O=C(O)CC(O)(C(=O)O)C(O)C(=O)O (stereo not shown) [hydroxycitric acid]	significantly reduce the body weight	lower lipid accumulation	substantially inhibit fatty acid synthesis	–	–
O=C([O-])C[C@@](O)(C(=O)[O-])[C@H](O)C(=O)[O-].O=C([O-])C[C@@](O)(C(=O)[O-])[C@H](O)C(=O)[O-].[Ca+2].[Ca+2].[Ca+2] [pure calcium salt]	–	–	–	moderately soluble	minimal hygroscopicity
O=C([O-])C[C@@](O)(C(=O)[O-])[C@H](O)C(=O)[O-].[K+].[K+].[K+] [pure potassium salt]	–	–	–	highly soluble	high hygroscopicity
